Measurements taken from US10457685B2, “[1,2,3]triazolo[4,5-D]pyrimidine derivatives with affinity for the type-2 cannabinoid receptor” (Hoffmann-La Roche Inc., priority 2016, dated 2019).

Legend:
[1] = target: human CB2 receptor (CNR2) (Homo sapiens (Human), UniProt P34972); test: Radioligand binding assay ([3H]-CP-55,940), membranes of HEK cells expressing human CNR2; conditions: 2.6 nM [3H]-CP-55,940, HEK cell membranes, 1 h at 30° C.
Procedure: (§1) Radioligand Binding Assay
(§2) The affinity of the compounds of the invention for cannabinoid receptors was determined using recommended amounts of membrane preparations (PerkinElmer) of human embryonic kidney (HEK) cells expressing the human CNR1 or CNR2 receptors in conjunction with 1.5 or 2.6 nM [3H]-CP-55,940 (Perkin Elmer) as radioligand, respectively. Binding was performed in binding buffer (50 mM Tris, 5 mM MgCl2, 2.5 mM EDTA, and 0.5% (wt/vol) fatty acid free BSA, pH 7.4 for CB1 receptor and 50 mM Tris, 5 mM MgCl2, 2.5 mM EGTA, and 0.1% (wt/vol) fatty acid free BSA, pH 7.4 for CB2 receptor) in a total volume of 0.2 mL for 1 h at 30° C. shaking. The reaction was terminated by rapid filtration through microfiltration plates coated with 0.5% polyethylenimine (UniFilter GF/B filter plate; Packard). Bound radioactivity was analyzed for Ki using nonlinear regression analysis (Activity Base, ID Business Solution, Limited), with the Kd values for [^3H]CP55,940 determined from saturation experiments.

[2] = target: human CB1 receptor (CNR1) (Homo sapiens (Human), UniProt P21554); test: Radioligand binding assay ([3H]-CP-55,940), membranes of HEK cells expressing human CNR1; conditions: 1.5 nM [3H]-CP-55,940, HEK cell membranes, 1 h at 30° C.
Chain of human CB1 receptor (CNR1) (P21554 whole entry): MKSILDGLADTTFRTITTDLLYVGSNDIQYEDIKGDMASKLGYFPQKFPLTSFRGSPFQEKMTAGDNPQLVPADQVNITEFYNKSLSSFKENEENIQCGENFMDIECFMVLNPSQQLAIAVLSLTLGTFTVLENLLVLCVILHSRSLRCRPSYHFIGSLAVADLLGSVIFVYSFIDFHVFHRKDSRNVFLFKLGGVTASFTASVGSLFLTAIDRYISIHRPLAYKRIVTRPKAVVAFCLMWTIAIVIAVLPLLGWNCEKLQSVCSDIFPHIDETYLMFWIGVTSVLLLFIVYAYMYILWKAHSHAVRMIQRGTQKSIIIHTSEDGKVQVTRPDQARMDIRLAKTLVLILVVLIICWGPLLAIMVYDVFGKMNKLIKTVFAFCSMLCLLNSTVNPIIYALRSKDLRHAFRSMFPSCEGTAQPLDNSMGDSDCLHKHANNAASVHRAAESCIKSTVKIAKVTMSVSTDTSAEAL
Procedure: as §1, §2

Chain of human CB2 receptor (CNR2) (P34972 whole entry): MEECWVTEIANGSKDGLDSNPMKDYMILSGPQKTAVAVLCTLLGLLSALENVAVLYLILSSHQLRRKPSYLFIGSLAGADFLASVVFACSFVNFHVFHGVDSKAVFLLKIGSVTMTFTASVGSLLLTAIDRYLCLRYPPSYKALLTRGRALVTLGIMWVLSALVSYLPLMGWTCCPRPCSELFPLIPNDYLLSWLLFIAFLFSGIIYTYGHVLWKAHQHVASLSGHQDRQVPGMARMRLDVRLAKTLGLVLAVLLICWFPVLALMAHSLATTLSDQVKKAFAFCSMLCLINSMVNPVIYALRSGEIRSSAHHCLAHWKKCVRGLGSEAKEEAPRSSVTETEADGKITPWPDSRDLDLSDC

In the case of “5-tert-butyl-7-(3,3-Difluoropyrrolidin-1-yl)-3-[[2-(pyridin-2-yldisulfanyl)phenyl]methyl]triazolo[4,5-d]pyrimidine [Example 37]”, the Ki [1] is reported as 0.541 µM and the Ki [2] is reported as 2.58 µM.
Cc1nonc1Cn1nnc2c(N3CC[C@H](S)C3)nc(C(C)(C)C)nc21 (single isomer, unassigned) [Example 10] gave a Ki [1] of 0.153 µM and a Ki [2] of over 10 µM.
In the case of CC(C)(C)c1nc(N2CC[C@H](S)C2)c2nnn(Cc3ccccc3Cl)c2n1 (single isomer, unassigned) [Example 12], the Ki [1] is reported as 2.5 µM and the Ki [2] is reported as 2.81 µM.
Compound CC(C)(C)c1nc(N2CC[C@@H](S)C2)c2nnn(Cc3ccccc3Cl)c2n1 (single isomer, unassigned) [Example 13] has a Ki [1] of 1.56 µM and a Ki [2] of over 10 µM.
CC(C)(C)c1nc(N2CC[C@H](O)C2)c2nnn(Cc3ccccc3S(=O)(=O)F)c2n1 [Example 1, 2-[[5-tert-Butyl-7-[(3S)-3-hydroxypyrrolidin-1-yl]triazolo[4,5-d]pyrimidin-3-yl]methyl]benzenesulfonyl fluoride] was tested, and the Ki [1] was 0.016 µM and the Ki [2] was over 10 µM.
With CC(C)(C)c1nc(N2CCC(F)(F)C2)c2nnn(Cc3ccccc3CS(=O)(=O)F)c2n1 [Example 2, (2-{[5-tert-Butyl-7-(3,3-difluoropyrrolidin-1-yl)-3H-[1,2,3]triazolo[4,5-d]pyrimidin-3-yl]methyl}phenyl)methanesulfonyl fluoride] the Ki [1] was 0.011 µM and the Ki [2] was 1.96 µM.
Compound CC(C)(C)c1nc(N2CC[C@H](O)C2)c2nnn(Cc3ccccc3CS(=O)(=O)F)c2n1 [Example 3, [2-({5-tert-Butyl-7-[(3S)-3-hydroxypyrrolidin-1-yl]-3H-[1,2,3]1 triazolo[4,5-d]pyrimidin-3-yl}methyl)phenyl]methanesulfonyl fluoride] has a Ki [1] of 0.283 µM and a Ki [2] of over 10 µM.
Compound CC(C)(C)c1nc(N2CCC(F)(F)C2)c2nnn(Cc3ccccc3CN=C=S)c2n1 [Example 4, 5-tert-Butyl-7-(3,3-difluoropyrrolidin-1-yl)-3-{[2-(isothiocyanatomethyl)phenyl]methyl}-3H-[1,2,3]triazolo[4,5-d]pyrimidine] has a Ki [1] of 0.088 µM and a Ki [2] of 3.83 µM.
For CC(C)(C)c1nc(N2CC[C@H](O)C2)c2nnn(Cc3ccccc3CN=C=S)c2n1 [Example 5, (3S)-1-(5-tert-Butyl-3-{[2-(isothiocyanatomethyl)phenyl]methyl}-3H-[1,2,3]triazolo[4,5-d]pyrimidin-7-yl)pyrrolidin-3-ol], the Ki [1] was 0.091 µM and the Ki [2] was over 10 µM.
With CC(C)(C)c1nc(N2CCC(F)(F)C2)c2nnn(Cc3ccccc3N=C=S)c2n1 [Example 6, 5-tert-Butyl-7-(3,3-difluoropyrrolidin-1-yl)-3-[(2-isothiocyanatophenyl)methyl]-3H-[1,2,3]triazolo[4,5-d]pyrimidine] the Ki [1] was 0.3 µM and the Ki [2] was 5.36 µM.
In the case of CC(C)(C)c1nc(N2CCC(F)(F)C2)c2nnn(Cc3ccccc3S(=O)(=O)F)c2n1 [Example 7, 2-{[5-tert-Butyl-7-(3,3-difluoropyrrolidin-1-yl)-3H-[1,2,3]triazolo[4,5-d]pyrimidin-3-yl]methyl}benzene-1-sulfonyl fluoride], the Ki [1] is reported as 0.006 µM and the Ki [2] is reported as 0.931 µM.
In the case of CC(C)(C)c1nc(N2CCC(S)C2)c2nnn(Cc3ccccc3Cl)c2n1 (stereo not shown) [Example 8, 1-{5-tert-Butyl-3-[(2-chlorophenyl)methyl]-3H-[1,2,3]triazolo[4,5-d]pyrimidin-7-yl}pyrrolidine-3-thiol], the Ki [1] is reported as 0.085 µM and the Ki [2] is reported as 1.47 µM.
With CC(C)(C)c1nc(N2CC(S)C2)c2nnn(Cc3ccccc3Cl)c2n1 [Example 9, 1-{5-tert-Butyl-3-[(2-chlorophenyl)methyl]-3H-[1,2,3]triazolo[4,5-d]pyrimidin-7-yl}azetidine-3-thiol] the Ki [1] was 0.383 µM and the Ki [2] was over 10 µM.
Cc1nonc1Cn1nnc2c(N3CCC(N=[N+]=[N-])C3)nc(C(C)(C)C)nc21 (stereo not shown) [Example 14, 7-(3-Azidopyrrolidin-1-yl)-5-tert-butyl-3-[(4-methyl-1,2,5-oxadiazol-3-yl)methyl]-3H-[1,2,3]triazolo[4,5-d]pyrimidine] gave a Ki [1] of 0.137 µM and a Ki [2] of over 10 µM.
Cc1nonc1Cn1nnc2c(N3CCC(N=C=S)C3)nc(C(C)(C)C)nc21 (stereo not shown) [Example 16, 5-tert-Butyl-7-(3-isothiocyanatopyrrolidin-1-yl)-3-[(4-methyl-1,2,5-oxadiazol-3-yl)methyl]-3H-[1,2,3]triazolo[4,5-d]pyrimidine] was tested, and the Ki [1] was 0.426 µM and the Ki [2] was over 10 µM.
Work on CC(C)(C)c1nc(N2CCC(N=[N+]=[N-])C2)c2nnn(Cc3ccccc3Cl)c2n1 (stereo not shown) [Example 17, 7-(3-Azidopyrrolidin-1-yl)-5-tert-butyl-3-[(2-chlorophenyl)methyl]-3H-[1,2,3]triazolo[4,5-d]pyrimidine] yielded a Ki [1] of 0.21 µM and a Ki [2] of 2.29 µM.
With CSSC1CCN(c2nc(C(F)(F)c3ccccc3)nc3c2nnn3Cc2nonc2C)C1 (stereo not shown) [Example 18, 5-[Difluoro(phenyl)methyl]-7-[3-(methyldisulfanyl)pyrrolidin-1-yl]-3-[(4-methyl-1,2,5-oxadiazol-3-yl)methyl]-3H-[1,2,3]triazolo[4,5-d]pyrimidine] the Ki [1] was 1.03 µM and the Ki [2] was over 10 µM.
Work on CSSC1CCN(c2nc(C(F)(F)c3ccccc3)nc3c2nnn3Cc2ccccc2Cl)C1 (stereo not shown) [Example 19, 3-[(2-Chlorophenyl)methyl]-5-[difluoro(phenyl)methyl]-7-[3-(methyldisulfanyl)pyrrolidin-1-yl]-3H-[1,2,3]triazolo[4,5-d]pyrimidine] yielded a Ki [1] of 1.37 µM and a Ki [2] of over 10 µM.
In the case of Cc1nonc1Cn1nnc2c(N3CCC(N=[N+]=[N-])C3)nc(C(F)(F)c3ccccc3)nc21 (stereo not shown) [Example 20, 7-(3-Azidopyrrolidin-1-yl)-5-[difluoro(phenyl)methyl]-3-[(4-methyl-1,2,5-oxadiazol-3-yl)methyl]-3H-[1,2,3]triazolo[4,5-d]pyrimidine], the Ki [1] is reported as 1.3 µM and the Ki [2] is reported as over 10 µM.
In the case of [N-]=[N+]=NC1CCN(c2nc(C(F)(F)c3ccccc3)nc3c2nnn3Cc2ccccc2Cl)C1 (stereo not shown) [Example 21, 7-(3-Azidopyrrolidin-1-yl)-3-[(2-chlorophenyl)methyl]-5-[difluoro(phenyl)methyl]-3H-[1,2,3]triazolo[4,5-d]pyrimidine], the Ki [1] is reported as 0.729 µM and the Ki [2] is reported as 2.45 µM.
For FC(F)(c1ccccc1)c1nc(N2CCC(N=C=S)C2)c2nnn(Cc3ccccc3Cl)c2n1 (stereo not shown) [Example 22, 3-[(2-Chlorophenyl)methyl]-5-[difluoro(phenyl)methyl]-7-(3-isothiocyanatopyrrolidin-1-yl)-3H-[1,2,3]triazolo[4,5-d]pyrimidine], the Ki [1] was 1.24 µM and the Ki [2] was 6.44 µM.
Cc1nonc1Cn1nnc2c(N3CCC(N=C=S)C3)nc(C(F)(F)c3ccccc3)nc21 (stereo not shown) [Example 23, 5-[Difluoro(phenyl)methyl]-7-(3-isothiocyanatopyrrolidin-1-yl)-3-[(4-methyl-1,2,5-oxadiazol-3-yl)methyl]-3H-[1,2,3]triazolo[4,5-d]pyrimidine] was tested, and the Ki [1] was 1.46 µM and the Ki [2] was 1.45 µM.
O=S(=O)(F)c1ccccc1Cn1nnc2c(N3CC[C@H](O)C3)nc(C(F)(F)c3ccccc3)nc21 [Example 24, 2-[[5-[Difluoro(phenyl)methyl]-7-[(3S)-3-hydroxypyrrolidin-1-yl]triazolo[4,5-d]pyrimidin-3-yl]methyl]benzenesulfonyl fluoride] was tested, and the Ki [1] was 1.13 µM and the Ki [2] was 3.29 µM.
For CC(C)(C)c1nc(N2CCC(F)(F)C2)c2nnn(Cc3ccccc3CSSCCO)c2n1 [Example 25, 2-[[2-[[5-tert-Butyl-7-(3,3-difluoropyrrolidin-1-yl)triazolo[4,5-d]pyrimidin-3-yl]methyl]phenyl]methyldisulfanyl]ethanol], the Ki [1] was 0.009 µM and the Ki [2] was 0.211 µM.
Compound O=S(=O)(F)c1ccccc1Cn1nnc2c(N3CCC(F)(F)C3)nc(C(F)(F)c3ccccc3)nc21 [Example 26, 2-[[5-[Difluoro(phenyl)methyl]-7-(3,3-difluoropyrrolidin-1-yl)triazolo[4,5-d]pyrimidin-3-yl]methyl]benzenesulfonyl fluoride] has a Ki [1] of 0.63 µM and a Ki [2] of over 10 µM.
For FC1(F)CCN(c2nc(C(F)(F)c3ccccc3)nc3c2nnn3Cc2ccccc2CCSSc2ccccn2)C1 [Example 27, 5-[Difluoro(phenyl)methyl]-7-(3,3-difluoropyrrolidin-1-yl)-3-[[2-[2-(pyridin-2-yldisulfanyl)ethyl]phenyl]methyl]triazolo[4,5-d]pyrimidine], the Ki [1] was 0.262 µM and the Ki [2] was 3.04 µM.
Compound OCCSSCCc1ccccc1Cn1nnc2c(N3CCC(F)(F)C3)nc(C(F)(F)c3ccccc3)nc21 [Example 28, 2-[2-[2-[[5-[Difluoro(phenyl)methyl]-7-(3,3-difluoropyrrolidin-1-yl)triazolo[4,5-d]pyrimidin-3-yl]methyl]phenyl]ethyldisulfanyl]ethanol] has a Ki [1] of 0.138 µM and a Ki [2] of 1.08 µM.
Compound CC(C)(C)c1nc(N2CCC(F)(F)C2)c2nnn(Cc3ccccc3CCSSCCO)c2n1 [Example 29, 2-[2-[2-[[5-tert-Butyl-7-(3,3-difluoropyrrolidin-1-yl)triazolo[4,5-d]pyrimidin-3-yl]methyl]phenyl]ethyldisulfanyl]ethanol] has a Ki [1] of 0.006 µM and a Ki [2] of 0.205 µM.
Compound CC(C)(C)c1nc(N2CCC(F)(F)C2)c2nnn(Cc3ccccc3CCS(=O)(=O)n3nnc4ccccc43)c2n1 [Example 30, 3-[[2-[2-(Benzotriazol-1-ylsulfonyl)ethyl]phenyl]methyl]-5-tert-butyl-7-(3,3-difluoropyrrolidin-1-yl)triazolo[4,5-d]pyrimidine] has a Ki [1] of 0.246 µM and a Ki [2] of over 10 µM.
